From publication PMC7123434, “Development of High-Throughput Fluorescent-Based Screens to Accelerate Discovery of P2X Inhibitors from Animal Venoms” (Journal of Natural Products, 2019)

Tests used:
Type in all cases: cell-based
hP2X4 [1] = molecular target: T1, hP2X4 (Homo sapiens, UniProt Q99571); experiment: Fura-2 AM [Ca2+]i assay on 1321N1-hP2X4 cells; conditions: used for fitting; Figure S1 A,B: 1321N1-hP2X4 and HEK293-hP2X4; read-out: ATP EC50
T1 construct: expressed in transfected cells
T1 sequence (Q99571 1-388): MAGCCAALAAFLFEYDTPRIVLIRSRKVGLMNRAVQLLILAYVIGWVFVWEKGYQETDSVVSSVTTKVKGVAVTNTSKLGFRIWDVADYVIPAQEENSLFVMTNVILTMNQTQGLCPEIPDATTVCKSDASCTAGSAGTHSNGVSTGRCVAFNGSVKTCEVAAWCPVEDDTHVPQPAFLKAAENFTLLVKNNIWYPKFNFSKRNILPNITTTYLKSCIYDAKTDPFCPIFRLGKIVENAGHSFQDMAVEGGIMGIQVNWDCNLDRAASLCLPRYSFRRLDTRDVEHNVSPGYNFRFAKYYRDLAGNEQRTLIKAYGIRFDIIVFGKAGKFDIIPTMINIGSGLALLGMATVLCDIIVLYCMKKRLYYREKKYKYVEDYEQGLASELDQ
Description: One day prior to measurements, 1321N1-hP2X4 cells were plated onto poly-D-lysine-coated 96-well plates at 2 × 10^4 cells/well. After 24 h, the cells were loaded for 1 h at 37 °C with 2 μM Fura-2 AM in Hank’s Balanced Salt Solution (HBSS, Gibco). The Fura-2 loading buffer dye was removed; then the cells were incubated in 80 μL of Etotal buffer, containing (in mM) 145 NaCl, 5 KCl, 1 MgCl2, 2 CaCl2, 13 D-glucose, 10 HEPES; pH 7.33. […] The injection volume was 10 μL with 150 μL pipette height and rate of 4 (∼62 μL/s). The run time was 300 s with 3.5 s intervals and 3 reads/well. The change in [Ca^2+]i concentration was calculated as the ratio of Fura-2 intensities at 520 emission from excitation at 340 and 380 nm (F ratio).

hP2X7 = molecular target: T2, hP2X7 (Homo sapiens, UniProt Q99572); experiment: YOPRO-1 dye uptake assay on HEK293-hP2X7 cells; conditions: used for fitting; Figure S1C: HEK293-hP2X7; read-out: ATP EC50
T2 construct: expressed in transfected cells
T2 sequence (Q99572 1-595): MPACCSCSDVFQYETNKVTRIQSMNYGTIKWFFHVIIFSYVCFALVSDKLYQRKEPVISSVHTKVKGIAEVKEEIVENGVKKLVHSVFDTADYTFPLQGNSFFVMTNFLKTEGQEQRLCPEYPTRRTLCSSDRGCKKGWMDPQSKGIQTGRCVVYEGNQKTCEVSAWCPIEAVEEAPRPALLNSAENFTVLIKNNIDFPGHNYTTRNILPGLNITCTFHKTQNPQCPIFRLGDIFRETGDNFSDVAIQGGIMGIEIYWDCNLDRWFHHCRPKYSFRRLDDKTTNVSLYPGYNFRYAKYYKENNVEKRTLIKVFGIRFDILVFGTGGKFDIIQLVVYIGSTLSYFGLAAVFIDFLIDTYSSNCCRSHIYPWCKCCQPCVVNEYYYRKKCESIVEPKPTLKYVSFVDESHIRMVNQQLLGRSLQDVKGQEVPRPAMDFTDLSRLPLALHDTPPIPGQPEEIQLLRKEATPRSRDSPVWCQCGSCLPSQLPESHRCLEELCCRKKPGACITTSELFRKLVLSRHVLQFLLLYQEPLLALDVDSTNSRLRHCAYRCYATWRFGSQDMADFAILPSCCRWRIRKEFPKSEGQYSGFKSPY
Description: (§1) This method was adapted and further optimized from Patrice et al.[50] One day prior to measurements, HEK293-hP2X4 and HEK293-hP2X7 cells were plated on poly-D-lysine-coated 96-well plates at 2 × 10^4 cells/well. After 24 h, the culture media was aspirated, and 80 μL of YOPRO-1 assay buffer (145 mM NaCl, 5 mM KCl, 0.1 mM CaCl2, 13 mM D-glucose, 10 mM HEPES; pH 7.35) with 2 μM YOPRO-1 was applied. […] The injection volume was 10 μL with a 150 μL pipet height and rate of 4 (∼62 μL/s). The run time was 300 s with a 3.9 s interval, 6 reads/well, and 77 reads in total. Measurement parameters were as follows: bottom reading, excitation wavelength (490 nm), emission wavelength (520 nm).

hP2X4 [2] = molecular target: T1, hP2X4; experiment: YOPRO-1 dye uptake assay on HEK293-hP2X4 cells
Description: as §1

Nc1ncnc2c1ncn2[C@@H]1O[C@H](COP(=O)(O)OP(=O)(O)OP(=O)(O)O)[C@@H](O)[C@H]1O [ATP]
EC50 (hP2X4 [1]): 1.6 µM | EC50 (hP2X7): 300 µM

CC(C)c1cc(Br)c(NC(=O)Nc2cccnc2)c(Br)c1 [BX430]
inhibition at 10 µM (hP2X4 [2]; 10 μM, hP2X4, cell line not stated): 75% | Normalised Mean (hP2X4 [2]; AUC signal normalised to positive control (10 µM ATP) = 1.0, HEK293-hP2X4): 1.05
